Counter-ions that a name gives are not always drawn.
Legend:
Conditions in all cases: exposure time 48 h
[1] = test system: Caenorhabditis elegans N2; test: lowest effective concentration for larval growth inhibition (size below effect threshold); higher = less potent
How it was run: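 C. elegans N2 L1 larvae (50 per 96-well) were grown 48 h at 20°C in K-medium with killed bacteria, 1% DMSO and 0.5, 1, 5, 10, 50, 100 or 200 µM chemical. The Biosort measured per-worm extinction as size, and these were log-transformed into well means. The lowest effective concentration is the first dose where the plate-adjusted mean size drops under the 5.665 threshold and stays under it at higher doses.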

[2] = test system: Caenorhabditis elegans N2; test: AC50 for larval growth inhibition (Hill fit); higher = less potent
How it was run: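 Synchronised C. elegans N2 L1 larvae, 50 per well in 96-well plates, were grown at 20°C for 48 h in K-medium with killed OP50, 1% DMSO and 0.5–200 µM chemical. Worm size was read on a COPAS Biosort as extinction, log-transformed and averaged per well, and only wells holding at least 10 worms were kept. AC50 was obtained by a constrained Hill fit using weighted genetic-algorithm regression, with out-of-range values censored.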

[3] = test system: Caenorhabditis elegans N2; test: mean nematode size ln(EXT) after 48 h, plate-adjusted (DMSO control set to 6) (ln(EXT), control-adjusted); higher = larger nematodes / less growth inhibition
How it was run: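 Chemical at 0.5–200 µM was tested on synchronised C. elegans N2 L1 larvae grown for 48 h at 20°C in K-medium with killed OP50 and 1% DMSO. Per-worm Biosort extinction, cleared of debris by a growth model, was natural-logged and averaged per well to give mean size. Plates were normalised by subtracting the vehicle control mean and adding 6.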

SMILES	lowest effective concentration [1] [µM]	AC50 for larval growth inhibition [2] [µM]	mean nematode size ln(EXT) (ln) ([3]; 0.5 µM)	mean nematode size ln(EXT) (ln) ([3]; 1 µM)	mean nematode size ln(EXT) (ln) ([3]; 5 µM)	mean nematode size ln(EXT) (ln) ([3]; 10 µM)	mean nematode size ln(EXT) (ln) ([3]; 50 µM)	mean nematode size ln(EXT) (ln) ([3]; 100 µM)	mean nematode size ln(EXT) (ln) ([3]; 200 µM)
CCOC(=O)C(C)Oc1ccc(Oc2cnc3cc(Cl)ccc3n2)cc1 (stereo unspecified) [Quizalofop-ethyl]	50	84.1	5.77	5.9	5.82	5.91	5.33	4.78	4.4
O=C(OCCCCCOC(=O)c1ccccc1)c1ccccc1 [1,5-Pentanediol,1,5-dibenzoate]	200	> 200	5.88	5.89	5.84	5.85	5.86	5.98	5.48
Cc1cc2c3c(c1)C(c1ccccc1)=N[C@@H](NC(=O)c1ccncc1)C(=O)N3CC2	200	> 200	5.86	5.88	5.88	5.88	5.9	5.83	5.23
NCc1cccc(C2CCN(C(=O)c3ccc(C#Cc4ccccc4F)o3)CC2)c1	5	31.6	5.96	5.71	5.61	5.42	4.45	3.28	
NC(=O)c1nc(-c2cccc(-c3cc(F)ccc3OCC(F)(F)C(F)(F)F)c2)n[nH]1	50	50.6	5.73	5.81	5.71	5.78	5.53	4.97	5.09
Nc1c(Cl)c(F)nc(OCC(=O)O)c1Cl [Fluroxypyr]	200	> 200	5.6	5.62	5.73	5.61	5.75	5.78	5.64
CC/C(=C(/CC)c1ccc(O)cc1)c1ccc(O)cc1 [Diethylstilbestrol (DES)]	200	87	6	6	5.97	5.96	5.99	5.73	5.61
Clc1ccc(C(c2ccc(Cl)cc2)C(Cl)(Cl)Cl)cc1 [p,p'-DDT]	5	3.83	6	5.91	4.31	3.75	3.44	3.36	3.29
C[C@@H]1[C@@H](c2ccc(Cl)cc2)SC(=O)N1C(=O)NC1CCCCC1 [Hexythiazox]	100	122	6.07	5.94	5.91	5.99	5.68	5.34	3.24
CCCCCOC(=O)COc1cc(N2C(=O)C3=C(CCCC3)C2=O)c(F)cc1Cl [Flumiclorac-pentyl]	100	> 200	5.98	6.04	6.02	5.91	5.69	5.6	4.54
ClC1=C(Cl)[C@]2(Cl)[C@@H]3[C@@H]4C[C@@H]([C@H]5O[C@@H]45)[C@@H]3[C@@]1(Cl)C2(Cl)Cl [Dieldrin]	5	171	5.78	5.82	5.39	5.26	5.12	5.07	4.21
Nc1ccc2c(c1)C(=O)c1ccccc1C2=O [2-Aminoanthraquinone]	100	53.9	6.17	5.82	5.77	5.81	5.75	4.42	5.14
CC1=C(/C=C/C(C)=C/C=C/C(C)=C/C(=O)O)C(C)(C)CCC1 [Retinoic acid]	10	16.6	5.96	5.78	5.8	5.58	4.47	4.33	4.41
CCOP(=S)(OCC)SCSP(=S)(OCC)OCC [Ethion]	1	99.2	5.78	5.62	5.28	5.04	4.93	4.85	4.06
CC(c1ccc(O)cc1)(c1ccc(O)cc1)c1ccc(O)cc1 [4,4’,4"-Ethane-1,1,1-triyltriphenol]	100	79.3	5.76	6.01	5.91	5.91	5.87	5.39	5.19
CN(C)c1nc(=O)n(C2CCCCC2)c(=O)n1C [Hexazinone]	200	109	5.85	5.89	5.89	5.92	6	5.92	5.62
CCOP(=S)(OCC)Oc1nc(Cl)n(C(C)C)n1 [Isazofos]	≤ 0.5	3.38	4.88	5.05	4.5	4.43	3.8	3.59	3.78
CCCN(CCC)c1c([N+](=O)[O-])cc(C(F)(F)F)c(N)c1[N+](=O)[O-] [Prodiamine]	200	> 200	6.07	6.18	6.02	5.75	5.99	5.92	5.1
FC(F)(F)C(F)(F)C(F)(F)C(F)(F)C(F)(F)C(F)(F)CCI [1H,1H,2H,2H-Perfluorooctyl iodide]	200	190	5.99	5.98	5.95	5.96	5.94	5.86	4.39
O=C(O)C(F)(F)C(F)(F)C(F)(F)C(F)(F)C(F)(F)C(F)(F)C(F)(F)C(F)(F)F [Perfluorononanoic acid]	10	39	5.85	5.84	5.81	5.61	4.27	3.92	3.1
Oc1cc2ccccc2c2ccccc12 [9-Phenanthrol]	50	119	5.85	5.85	5.84	5.72	5.41	4.71	4.03
CS(=O)(=O)c1cc(C(F)(F)F)ccc1C(=O)c1cnoc1C1CC1 [Isoxaflutole]	200	> 200	6.11	6.29	6.22	6.31	6.07	6.15	5.61

SMILES	lowest effective concentration [1] [µM]	AC50 for larval growth inhibition [2] [µM]	mean nematode size ln(EXT) (ln) ([3]; 0.5 µM)	mean nematode size ln(EXT) (ln) ([3]; 1 µM)	mean nematode size ln(EXT) (ln) ([3]; 5 µM)	mean nematode size ln(EXT) (ln) ([3]; 10 µM)	mean nematode size ln(EXT) (ln) ([3]; 50 µM)	mean nematode size ln(EXT) (ln) ([3]; 100 µM)	mean nematode size ln(EXT) (ln) ([3]; 200 µM)
CS(=O)(=O)c1ccc(C(=O)C2C(=O)CCCC2=O)c([N+](=O)[O-])c1 [Mesotrione]	200	107	5.87	5.92	5.92	6.03	5.9	5.68	5.41
CCOc1ccc2[nH]cc(C(=O)NCc3ccccc3)c(=O)c2n1	200	> 200	5.85	5.84	5.84	5.96	5.91	5.86	5.63
COP(=S)(OC)SCN1C(=O)c2ccccc2C1=O [Phosmet]	10	> 200	5.89	5.76	5.86	5.61	5.66	5.52	5.02
CCCCCCC(CCCCCCCCCCC(=O)OCC(COC(C)=O)OC(C)=O)OC(C)=O (stereo unspecified)	50	> 200	5.48	5.6	5.59	5.69	5.64	5.58	5.53
CCCCOC(=O)C(C)Oc1ccc(Oc2ccc(C(F)(F)F)cn2)cc1 (stereo unspecified) [Fluazifop-butyl]	100	191	6.21	6.17	6.11	6.18	5.87	5.5	4.66
CCCCCCCC/C=C\CCCCCCCC(=O)OC[C@@H](O)[C@H]1OC[C@H](O)[C@H]1O [Sorbitan, mono-(9Z)-9-octadecenoate]	200	> 200	5.92	5.88	5.92	5.89	5.89	5.83	5.34
O=Cc1ccccc1C=O [1,2-Benzenedicarboxaldehyde]	50	62	5.83	5.92	5.82	5.93	5.24	4.04	3.73
O=C(O)Cn1c(=O)n(Cc2ccc(Br)cc2F)c(=O)c2ccc(Cl)cc21 [Zenarestat]	200	> 200	5.91	5.87	5.84	6.11	5.77	5.77	5.4
CCC(=O)C(CC(C)N(C)C)(c1ccccc1)c1ccccc1 (stereo unspecified) [Methadone Hydrochloride]	200	> 200	5.87	5.81	5.87	5.88	5.7	5.81	5.54
O=[N+]([O-])/N=C1\NCCN1Cc1ccc(Cl)nc1 [Imidacloprid]	100	111	5.78	6.02	6.07	6.08	5.96	5.54	4.86
CC(C)=CCC/C(C)=C\CO [cis-3,7-Dimethyl-2,6-octadien-1-ol]	200	> 200	5.8	5.76	5.79	5.75	5.78	5.69	5.63
CCC[CH2][Sn]([Cl])([CH2]CCC)[CH2]CCC [Tributyltin chloride]	≤ 0.5	< 0.5	4.58	4.74	3.7	3.56	3.85	3.97	3.48
CC(=O)CC(c1ccccc1)c1c(O)c2ccccc2oc1=O (stereo unspecified) [Warfarin]	200	> 200	5.8	5.94	5.97	5.89	5.91	5.81	5.59
O=C(NC(=O)c1c(F)cccc1F)Nc1ccc(OC(F)(F)C(F)OC(F)(F)F)c(Cl)c1 (stereo unspecified) [Novaluron]	50	> 200	5.83	5.74	5.85	5.88	5.61	5.12	4.56
CCN(CC)CCNc1ccc(CNC=O)c2sc3ccc(OC)cc3c(=O)c12	10	107	5.89	5.87	5.75	5.65	5.25	4.73	3.81
CCC(C)Nc1c([N+](=O)[O-])cc(C(C)(C)C)cc1[N+](=O)[O-] (stereo unspecified) [Butralin]	50	48.9	5.81	5.77	5.75	5.8	4.89	4.04	4.68
CN(C)[C@@H]1C(=O)C(C(N)=O)=C(O)[C@@]2(O)C(=O)C3=C(O)c4c(O)cccc4[C@@](C)(O)[C@H]3[C@H](O)[C@@H]12 [Oxytetracycline hydrochloride]	100	81.4	5.99	5.96	5.95	6.01	5.9	5.64	5.48
Clc1cccc(C(Cl)(Cl)Cl)n1 [Nitrapyrin]	100	108	5.36	5.48	5.3	5.47	5.92	5.54	4.05
Clc1nc(Cl)nc(Nc2ccccc2Cl)n1 [Anilazine]	200	> 200	6.11	6.01	6.13	6.11	5.99	5.78	5
CC(C)N1C(=O)c2ccccc2NS1(=O)=O [Bentazone]	200	> 200	6.05	5.93	5.96	6	6.01	6.05	5.55
CC(C)(C)C(O)(CCc1ccc(Cl)cc1)Cn1cncn1 (stereo unspecified) [Tebuconazole]	50	144	5.91	5.93	5.86	5.81	5.26	5.21	4.07

Source: the supplement of paper PMC4858399
